Source: ChEMBL document CHEMBL1201862, “PubChem BioAssay data set” (2004)
Calls of active or inactive are those of the source.

Experiments:
[1] = target: DNA dC->dU-editing enzyme APOBEC-3A (Homo sapiens, UniProt P31941); assay: Dose Response confirmation of small molecule APOBEC3A DNA Deaminase Inhibitors via a fluorescence-based single-stranded DNA deaminase assay. [Related pubchem assays (depositor defined):AID493011, AID493024]; assay type: functional
[2] = target: T1, Carboxy-terminal domain RNA polymerase II polypeptide A small phosphatase 1 (Homo sapiens, UniProt Q9GZU7); assay: CTDSP1 inhibitors, concentration-response, biochemical, absorbance readout, ultra-high-throughput screen actives (AID 540297); assay type: functional
T1 sequence (Q9GZU7 whole entry): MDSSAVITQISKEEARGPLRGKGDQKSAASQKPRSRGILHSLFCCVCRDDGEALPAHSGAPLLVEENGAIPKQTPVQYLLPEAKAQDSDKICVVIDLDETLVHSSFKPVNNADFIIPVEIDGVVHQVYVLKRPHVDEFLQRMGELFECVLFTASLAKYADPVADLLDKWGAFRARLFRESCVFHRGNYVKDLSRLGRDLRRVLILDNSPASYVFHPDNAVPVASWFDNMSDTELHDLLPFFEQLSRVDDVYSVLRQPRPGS

[3] = target: DNA dC->dU-editing enzyme APOBEC-3G (Homo sapiens, UniProt Q9HC16); assay type: functional;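 also: Dose-response counterscreen measuring inhibition of APOBEC3G DNA deaminase activity, run while confirming APOBEC3A inhibitors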
Sequence of DNA dC->dU-editing enzyme APOBEC-3G (Q9HC16 whole entry): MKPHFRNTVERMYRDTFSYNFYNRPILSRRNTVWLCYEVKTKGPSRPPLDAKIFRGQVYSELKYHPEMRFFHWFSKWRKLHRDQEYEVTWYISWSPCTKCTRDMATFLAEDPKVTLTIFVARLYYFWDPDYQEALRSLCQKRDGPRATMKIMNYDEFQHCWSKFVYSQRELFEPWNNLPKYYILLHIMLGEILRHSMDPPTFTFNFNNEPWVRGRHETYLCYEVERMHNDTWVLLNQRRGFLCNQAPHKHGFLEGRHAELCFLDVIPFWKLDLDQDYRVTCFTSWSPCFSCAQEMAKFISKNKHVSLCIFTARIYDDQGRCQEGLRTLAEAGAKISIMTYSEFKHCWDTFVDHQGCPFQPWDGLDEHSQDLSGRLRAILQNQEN

[4] = Luminescence Cell-Based Dose Confirmation HTS to Identify Inhibitors of Platelet Dense Granule Release. [Related pubchem assays: 1663 (Primary HTS), 1678 (Summary of Project)]; assay type: functional
[5] = target: T2, Short transient receptor potential channel 4 (Mus musculus, UniProt Q9QUQ5); assay: potentiation of DAMGO-evoked TRPC4 calcium signal – cell-based, HEK293 TRPC4/mu-opioid, Fluo-4 calcium, EC20 DAMGO, dose response (AID 434941); assay type: functional
T2 sequence (Q9QUQ5 whole entry): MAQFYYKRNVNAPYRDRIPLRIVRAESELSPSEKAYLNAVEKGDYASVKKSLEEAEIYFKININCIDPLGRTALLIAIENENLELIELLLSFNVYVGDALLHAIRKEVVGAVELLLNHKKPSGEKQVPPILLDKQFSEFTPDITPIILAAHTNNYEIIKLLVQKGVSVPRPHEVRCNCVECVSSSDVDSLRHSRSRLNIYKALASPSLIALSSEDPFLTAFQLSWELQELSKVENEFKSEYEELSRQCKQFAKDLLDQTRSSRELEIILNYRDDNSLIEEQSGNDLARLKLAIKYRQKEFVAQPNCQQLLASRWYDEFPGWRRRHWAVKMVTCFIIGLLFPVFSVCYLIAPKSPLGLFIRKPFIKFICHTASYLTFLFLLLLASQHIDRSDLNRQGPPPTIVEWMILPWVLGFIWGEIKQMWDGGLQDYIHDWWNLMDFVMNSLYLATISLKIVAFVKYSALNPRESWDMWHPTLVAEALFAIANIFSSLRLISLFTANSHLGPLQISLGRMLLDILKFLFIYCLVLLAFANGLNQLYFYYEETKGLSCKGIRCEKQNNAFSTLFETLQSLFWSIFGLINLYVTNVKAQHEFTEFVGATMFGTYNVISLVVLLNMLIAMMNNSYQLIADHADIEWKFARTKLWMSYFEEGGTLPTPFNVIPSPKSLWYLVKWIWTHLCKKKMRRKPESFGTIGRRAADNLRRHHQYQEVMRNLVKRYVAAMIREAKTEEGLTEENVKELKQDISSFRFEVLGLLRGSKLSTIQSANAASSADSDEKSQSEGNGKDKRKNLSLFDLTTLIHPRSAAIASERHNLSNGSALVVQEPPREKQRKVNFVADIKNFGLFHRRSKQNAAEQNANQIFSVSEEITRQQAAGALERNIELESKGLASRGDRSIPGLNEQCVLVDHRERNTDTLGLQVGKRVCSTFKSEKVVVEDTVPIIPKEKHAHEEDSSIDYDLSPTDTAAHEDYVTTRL

[6] = target: Luciferin 4-monooxygenase (Photinus pyralis, UniProt P08659); assay: inhibition of purified Photinus pyralis luciferase – biochemical, luminescence, dose response (AID 1891)
Sequence of Luciferin 4-monooxygenase (P08659 whole entry): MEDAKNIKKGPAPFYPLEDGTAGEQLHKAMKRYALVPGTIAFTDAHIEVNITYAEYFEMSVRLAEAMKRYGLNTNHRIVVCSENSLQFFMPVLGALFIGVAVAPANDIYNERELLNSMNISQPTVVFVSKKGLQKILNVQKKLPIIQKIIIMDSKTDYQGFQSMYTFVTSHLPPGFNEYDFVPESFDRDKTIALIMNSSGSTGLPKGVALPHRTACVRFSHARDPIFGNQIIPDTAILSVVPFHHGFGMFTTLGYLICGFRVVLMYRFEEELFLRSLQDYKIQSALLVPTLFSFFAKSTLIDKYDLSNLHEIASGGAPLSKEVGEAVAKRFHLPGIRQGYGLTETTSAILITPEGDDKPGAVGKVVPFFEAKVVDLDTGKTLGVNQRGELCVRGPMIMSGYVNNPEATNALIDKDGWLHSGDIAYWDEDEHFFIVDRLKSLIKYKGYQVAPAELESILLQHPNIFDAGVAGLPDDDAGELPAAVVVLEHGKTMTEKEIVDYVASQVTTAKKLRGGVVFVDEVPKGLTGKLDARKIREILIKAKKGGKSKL

[7] = target: Peroxisome proliferator-activated receptor gamma/Nuclear receptor coactivator 3 (Homo sapiens, UniProt P37231); assay: TR-FRET dose response biochemical High Throughput Screening assay for agonists of the steroid receptor coactivator 3 (SRC-3) recruitment by the peroxisome proliferator-activated receptor gamma (PPAR gamma): non-selective agonists. [Related pubchem assays: 1301 (Confirmation screen.), 1048 (Primary screen.)]; assay type: functional
[8] = target: Peroxisome proliferator-activated receptor gamma/Nuclear receptor coactivator 2 (Homo sapiens, UniProt P37231); assay: TR-FRET dose response biochemical High Throughput Screening assay for agonists of the steroid receptor coactivator 2 (SRC-2) recruitment by the peroxisome proliferator-activated receptor gamma (PPAR gamma): non-selective agonists. [Related pubchem assays: 1297, 1032 ]; assay type: functional
Sequence of Peroxisome proliferator-activated receptor gamma/Nuclear receptor coactivator 2 (P37231 whole entry): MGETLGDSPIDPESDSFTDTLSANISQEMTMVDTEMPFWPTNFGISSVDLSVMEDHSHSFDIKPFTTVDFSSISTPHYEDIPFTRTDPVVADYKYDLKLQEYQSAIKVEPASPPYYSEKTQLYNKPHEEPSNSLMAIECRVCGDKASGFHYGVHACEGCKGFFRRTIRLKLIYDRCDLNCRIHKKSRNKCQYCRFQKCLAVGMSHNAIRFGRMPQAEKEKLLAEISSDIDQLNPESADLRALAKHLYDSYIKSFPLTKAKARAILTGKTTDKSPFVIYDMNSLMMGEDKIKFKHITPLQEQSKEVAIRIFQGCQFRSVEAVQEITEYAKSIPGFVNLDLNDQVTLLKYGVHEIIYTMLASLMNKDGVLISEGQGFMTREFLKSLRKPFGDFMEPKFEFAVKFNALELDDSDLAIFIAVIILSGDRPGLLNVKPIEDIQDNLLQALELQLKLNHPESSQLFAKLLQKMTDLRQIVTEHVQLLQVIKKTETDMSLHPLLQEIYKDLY
Sequence of Peroxisome proliferator-activated receptor gamma/Nuclear receptor coactivator 2 (Q15596 whole entry, further chain): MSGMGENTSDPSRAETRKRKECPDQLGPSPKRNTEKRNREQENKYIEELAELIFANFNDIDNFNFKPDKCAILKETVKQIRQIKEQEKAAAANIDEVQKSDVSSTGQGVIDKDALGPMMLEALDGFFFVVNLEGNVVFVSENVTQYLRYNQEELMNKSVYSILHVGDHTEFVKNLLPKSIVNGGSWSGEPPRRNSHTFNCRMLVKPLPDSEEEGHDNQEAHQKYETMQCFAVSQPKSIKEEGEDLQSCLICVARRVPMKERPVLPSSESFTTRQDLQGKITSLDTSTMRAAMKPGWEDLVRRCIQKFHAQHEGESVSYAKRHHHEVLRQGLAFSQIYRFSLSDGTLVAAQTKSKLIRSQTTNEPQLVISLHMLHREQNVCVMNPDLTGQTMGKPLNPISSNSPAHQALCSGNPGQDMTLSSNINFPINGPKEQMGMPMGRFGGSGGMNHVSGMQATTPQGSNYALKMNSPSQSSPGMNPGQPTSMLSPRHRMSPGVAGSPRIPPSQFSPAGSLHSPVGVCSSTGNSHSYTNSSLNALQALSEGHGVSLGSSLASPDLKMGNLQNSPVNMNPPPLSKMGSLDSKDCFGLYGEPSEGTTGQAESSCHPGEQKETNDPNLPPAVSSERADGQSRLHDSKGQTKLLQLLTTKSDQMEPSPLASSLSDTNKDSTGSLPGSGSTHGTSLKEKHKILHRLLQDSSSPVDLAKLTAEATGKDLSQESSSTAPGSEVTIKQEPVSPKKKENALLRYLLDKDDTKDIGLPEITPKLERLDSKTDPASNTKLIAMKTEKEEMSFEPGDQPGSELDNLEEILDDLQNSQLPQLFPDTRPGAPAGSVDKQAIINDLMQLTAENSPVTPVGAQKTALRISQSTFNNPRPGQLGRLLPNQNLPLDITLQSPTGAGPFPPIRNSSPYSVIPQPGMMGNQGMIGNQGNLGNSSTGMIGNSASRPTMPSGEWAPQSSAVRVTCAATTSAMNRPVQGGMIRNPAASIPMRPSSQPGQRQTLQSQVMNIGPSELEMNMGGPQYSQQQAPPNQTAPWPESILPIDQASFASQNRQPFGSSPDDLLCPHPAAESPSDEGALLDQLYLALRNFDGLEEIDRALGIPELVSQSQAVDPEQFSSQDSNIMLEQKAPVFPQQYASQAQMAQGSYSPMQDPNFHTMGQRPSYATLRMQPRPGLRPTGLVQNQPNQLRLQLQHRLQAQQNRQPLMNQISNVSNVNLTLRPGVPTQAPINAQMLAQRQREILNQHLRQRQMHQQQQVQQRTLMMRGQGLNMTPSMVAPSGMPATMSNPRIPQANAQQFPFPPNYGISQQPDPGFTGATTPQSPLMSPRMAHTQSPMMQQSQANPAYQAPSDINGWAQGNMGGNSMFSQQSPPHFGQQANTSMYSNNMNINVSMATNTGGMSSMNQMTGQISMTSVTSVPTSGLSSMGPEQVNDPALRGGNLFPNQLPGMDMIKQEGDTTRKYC

[9] = target: Peroxisome proliferator-activated receptor gamma/Nuclear receptor coactivator 1 (Homo sapiens, UniProt P37231); assay: TR-FRET dose response biochemical High Throughput Screening assay for agonists of the steroid receptor coactivator 1 (SRC-1) recruitment by the peroxisome proliferator-activated receptor gamma (PPAR gamma): non-selective agonists. [Related pubchem assays (depositor defined):AID1300, AID1808, AID504735, AID631]; assay type: protein assay
Sequence of Peroxisome proliferator-activated receptor gamma/Nuclear receptor coactivator 1 (P37231 whole entry): as the sequence (P37231 whole entry) above
Sequence of Peroxisome proliferator-activated receptor gamma/Nuclear receptor coactivator 1 (Q15788 whole entry, further chain): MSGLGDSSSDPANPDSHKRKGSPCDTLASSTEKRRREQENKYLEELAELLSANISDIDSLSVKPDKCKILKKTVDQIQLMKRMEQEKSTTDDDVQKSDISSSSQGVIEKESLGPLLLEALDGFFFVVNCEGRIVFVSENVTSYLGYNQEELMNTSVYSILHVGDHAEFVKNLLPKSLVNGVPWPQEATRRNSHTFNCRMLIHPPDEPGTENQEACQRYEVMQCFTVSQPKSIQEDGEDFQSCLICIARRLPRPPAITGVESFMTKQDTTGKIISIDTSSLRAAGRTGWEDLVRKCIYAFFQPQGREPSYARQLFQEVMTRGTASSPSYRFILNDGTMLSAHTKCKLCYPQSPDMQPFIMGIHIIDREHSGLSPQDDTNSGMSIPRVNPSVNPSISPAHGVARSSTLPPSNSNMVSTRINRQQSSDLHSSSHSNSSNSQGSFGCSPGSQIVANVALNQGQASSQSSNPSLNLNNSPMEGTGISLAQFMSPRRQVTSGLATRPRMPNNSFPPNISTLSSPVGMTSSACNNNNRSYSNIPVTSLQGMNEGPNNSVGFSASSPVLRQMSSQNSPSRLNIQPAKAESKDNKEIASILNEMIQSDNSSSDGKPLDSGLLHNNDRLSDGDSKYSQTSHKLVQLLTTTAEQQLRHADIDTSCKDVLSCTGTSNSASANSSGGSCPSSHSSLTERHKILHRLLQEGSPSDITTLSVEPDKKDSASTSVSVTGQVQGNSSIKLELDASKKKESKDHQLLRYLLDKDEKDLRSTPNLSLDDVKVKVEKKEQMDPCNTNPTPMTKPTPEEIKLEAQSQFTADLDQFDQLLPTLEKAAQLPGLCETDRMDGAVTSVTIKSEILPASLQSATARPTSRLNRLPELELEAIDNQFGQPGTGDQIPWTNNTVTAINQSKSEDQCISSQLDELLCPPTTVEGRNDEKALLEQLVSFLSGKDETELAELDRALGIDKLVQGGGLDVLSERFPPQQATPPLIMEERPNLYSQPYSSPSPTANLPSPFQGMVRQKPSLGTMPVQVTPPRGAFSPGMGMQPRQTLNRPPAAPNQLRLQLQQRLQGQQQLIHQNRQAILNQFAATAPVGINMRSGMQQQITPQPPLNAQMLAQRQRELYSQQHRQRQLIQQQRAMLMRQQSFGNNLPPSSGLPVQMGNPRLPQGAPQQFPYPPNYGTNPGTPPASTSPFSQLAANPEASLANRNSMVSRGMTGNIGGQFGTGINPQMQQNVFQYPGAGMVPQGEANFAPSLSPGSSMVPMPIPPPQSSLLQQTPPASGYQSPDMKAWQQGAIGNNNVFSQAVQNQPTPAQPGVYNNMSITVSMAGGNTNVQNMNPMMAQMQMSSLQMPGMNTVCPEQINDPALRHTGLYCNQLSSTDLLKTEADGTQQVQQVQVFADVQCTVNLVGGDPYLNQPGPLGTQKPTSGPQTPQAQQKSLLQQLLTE

[10] = target: T3, Endoribonuclease toxin MazF (Escherichia coli K-12, UniProt P0AE70); assay: substrate-only fluorescence increase artefacts – biochemical, single-stranded RNase substrate, counter-screen for MazEF activator project, dose response (AID 588502); assay type: functional
T3 sequence (P0AE70 whole entry): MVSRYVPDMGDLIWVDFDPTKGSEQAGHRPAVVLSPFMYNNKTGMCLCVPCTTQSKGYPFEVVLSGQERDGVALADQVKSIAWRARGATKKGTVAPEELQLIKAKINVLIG

SUMO-activating enzyme [11] = target: T4, SUMO-activating enzyme (Homo sapiens, UniProt Q9UBT2); assay: blockers of UBC9-mediated SUMO conjugation – biochemical, AlphaScreen, SUMOylation inhibitor project, confirmation (AID 2018); assay type: functional
Streptococcus = assay: GAS UMAA2166 growth inhibition – luminescence, BacTiterGlo, counter-screen for streptokinase expression inhibitor project, dose response (AID 1915); assay type: functional, organism-based;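 also: potency for reduction of bacterial viability or growth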
[12] = target: T3, Endoribonuclease toxin MazF; assay: activation of MazEF endoribonuclease cleavage – biochemical, fluorescence, single-stranded RNA substrate, uHTS hits, dose response (AID 588481); assay type: functional
SUMO-activating enzyme [13] = target: T4, SUMO-activating enzyme; assay: blockers of SAE1/SAE2–UBC9 SUMO transfer – biochemical, HTRF, uHTS, primary screen (AID 2006); assay type: protein-complex assay
INS1 = assay: INS-1E survival protection against cytokine death – cell-based, luminescence, retest, dose response (AID 449756); assay type: functional; details: Rattus norvegicus;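 also: cell death triggered by IL-1 beta plus TNF-alpha plus IFN-gamma mixture; protective hits raise ATP signal compared with cytokine alone wells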
[14] = target: T5, Heat shock factor protein 1 (Mus musculus, UniProt P38532); assay: enhancement of HSF1-driven luciferase signal – cell-based, NIH3T3, luminescence, dose retest, confirmation (AID 435004); assay type: functional;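 also: stress induced by proteasome inhibitor MG132 added 30 min after compound; luciferase reporter driven by HSF1 response element in NIH3T3 cells; actives raise luminescence as potentiators of the MG132 stress response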
T5 sequence (P38532 whole entry): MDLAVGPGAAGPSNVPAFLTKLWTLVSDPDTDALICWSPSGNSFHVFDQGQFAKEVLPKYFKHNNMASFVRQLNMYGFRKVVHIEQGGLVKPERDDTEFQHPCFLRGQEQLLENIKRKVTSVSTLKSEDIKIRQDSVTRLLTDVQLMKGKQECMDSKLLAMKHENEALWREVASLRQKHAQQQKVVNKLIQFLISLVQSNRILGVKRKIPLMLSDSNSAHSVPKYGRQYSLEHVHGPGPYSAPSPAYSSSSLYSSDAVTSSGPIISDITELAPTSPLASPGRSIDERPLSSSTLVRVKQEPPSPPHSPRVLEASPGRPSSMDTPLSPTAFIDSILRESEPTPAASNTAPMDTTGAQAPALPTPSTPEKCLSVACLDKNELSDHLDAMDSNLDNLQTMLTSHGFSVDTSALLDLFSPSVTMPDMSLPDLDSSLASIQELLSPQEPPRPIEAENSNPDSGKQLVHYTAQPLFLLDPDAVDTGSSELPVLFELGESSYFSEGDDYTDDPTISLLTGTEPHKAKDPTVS

[15] = system: Streptococcus sp. 'group A'; assay: Streptococcus pyogenes SK(-)GAS viability under kanamycin – luminescence, BacTiterGlo, confirmation, counter-screen for streptokinase expression inhibitor project, dose response (AID 1900); assay type: functional, organism-based
[16] = target: Alkaline phosphatase, placental type (Homo sapiens, UniProt P05187); assay: human placental alkaline phosphatase inhibition – biochemical, luminescence, confirmation (AID 1512); assay type: functional
cells = assay type: functional
[17] = HepG2 cell cytotoxicity, dose response, cytotoxicity control for non-replicating M. tuberculosis project (AID 489018); assay type: functional; details: Mycobacterium tuberculosis
[18] = THP-1 cell cytotoxicity, dose response, cytotoxicity control for non-replicating M. tuberculosis project (AID 489025); assay type: functional
[19] = Vero E6 cell cytotoxicity, dose response, cytotoxicity control for non-replicating M. tuberculosis project, secondary assay (AID 492998); assay type: functional, VeroE6; details: Vero C1008
Streptokinase A = target: T6, Streptokinase A (Streptococcus pyogenes serotype M1, UniProt P10520); assay: viability-normalized secreted streptokinase activity reduction – plasminogen activation absorbance, OD405, dose response (AID 1914); assay type: functional, Streptococcus pyogenes M1 GAS;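 also: secreted streptokinase activity via plasminogen activation per viability signal from cell pellet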
T6 sequence (P10520 whole entry): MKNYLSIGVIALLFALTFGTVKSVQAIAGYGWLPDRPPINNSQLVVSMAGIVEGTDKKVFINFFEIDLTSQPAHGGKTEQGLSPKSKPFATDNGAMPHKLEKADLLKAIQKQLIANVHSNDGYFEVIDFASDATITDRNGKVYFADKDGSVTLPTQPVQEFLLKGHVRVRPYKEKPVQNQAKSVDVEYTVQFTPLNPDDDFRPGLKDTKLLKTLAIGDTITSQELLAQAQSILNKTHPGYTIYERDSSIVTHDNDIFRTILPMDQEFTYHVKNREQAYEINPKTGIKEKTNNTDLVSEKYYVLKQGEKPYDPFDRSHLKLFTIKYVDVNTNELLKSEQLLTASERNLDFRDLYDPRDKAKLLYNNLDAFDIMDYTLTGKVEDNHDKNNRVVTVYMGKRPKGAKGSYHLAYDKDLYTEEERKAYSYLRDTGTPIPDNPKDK

Vero = assay: cells; assay type: functional; details: Chlorocebus sabaeus
[20] = target: T2, Short transient receptor potential channel 4; assay: calcium entry via TRPC4 opening agents – cell-based, HEK293 TRPC4/mu-opioid, Fluo-4 calcium, dose response (AID 434937); assay type: functional

Sequence of DNA dC->dU-editing enzyme APOBEC-3A (P31941 whole entry, the tested form may be a part): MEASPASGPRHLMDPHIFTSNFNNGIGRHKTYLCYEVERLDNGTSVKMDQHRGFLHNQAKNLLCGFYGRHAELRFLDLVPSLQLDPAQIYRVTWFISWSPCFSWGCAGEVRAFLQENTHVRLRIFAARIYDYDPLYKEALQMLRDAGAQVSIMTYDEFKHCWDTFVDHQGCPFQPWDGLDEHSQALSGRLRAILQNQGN

O=C(N=C1NCCS1)C1CCN(S(=O)(=O)c2cc([N+](=O)[O-])ccc2Cl)CC1
IC50 [1]: 22 µM (active)
IC50 [2]: 3.39 µM (active)
IC50 [3]: 52.5 µM (active)

C=CCNC1=N[C@@H](c2ccccc2)C(C(=O)OC)=C(C)N1CCOC
IC50 [1]: 4.03 µM (active)
IC50 [3]: 6.15 µM (active)

CN(C)CC1CCCCC1OC(=O)Cc1ccc(Cl)c([N+](=O)[O-])c1 (centres undefined)
IC50 [1]: 2.81 µM (active)
IC50 [3]: 4.69 µM (active)

C1CCN(c2nc(N3CCCC3)nc(N3CCNCC3)n2)C1
EC50 [4]: > 112 µM (not active)
EC50 [5]: 2.66 µM (active)
EC50 [6]: > 112 µM (not active)

O=C1c2ccccc2-c2cccc(NS(=O)(=O)c3ccc(C(F)(F)F)cc3)c21
EC50 [7]: > 79.4 µM (not active)
EC50 [8]: > 79.4 µM (not active)
EC50 [9]: > 79.4 µM (inactive)

CNc1nc(N2CCc3ccccc32)ncc1F
EC50 [5]: 0.75 µM (active)

O=C1C([N-]S(=O)(=O)c2cccs2)=C([n+]2cccc(Cc3ccccc3)c2)C(=O)c2ccccc21
EC50 [10]: 36.5 µM (inactive)
IC50 (SUMO-activating enzyme [11]): 9.51 µM (active)
EC50 (Streptococcus): 1.6 µM (active)
EC50 [12]: > 99 µM (inactive)
IC50 (SUMO-activating enzyme [13]): 12.9 µM (active)
AC50 (INS1): 2.69 µM (active)
EC50 [14]: > 260 µM (inactive)
EC50 [15]: 1.53 µM (active)

CCN(CC(=O)Nc1cccc(F)c1)Cc1nc(O)c2ccccc2n1
IC50 [16]: > 100 µM (inactive)

CN(C)CCNc1ccc(Cl)cc1[N+](=O)[O-]
EC50 [5]: 0.01 µM (active)

CCn1c(=O)cc(SCC(=O)Nc2ccc3c(c2)OCO3)c2ccccc21
EC50 [7]: > 79.4 µM (not active)
EC50 [8]: 35.4 µM (not active)
EC50 [9]: 52.9 µM (inactive)

COCCNC(=O)CSc1cc(=O)n(C)c2cc(Cl)ccc12
EC50 [7]: > 79.4 µM (not active)
EC50 [8]: > 79.4 µM (not active)
EC50 [9]: > 79.4 µM (inactive)

COc1ccccc1/C=N\Nc1cc(C)nc(-n2nc(C)cc2C)n1
EC50 (Streptococcus): 16.1 µM (active)
IC50 (cells): < 0.1 µM (active)
AC50 (INS1): 2.92 µM (active)
CC50 [17]: 18.3 µM (active)
EC50 [15]: 7.45 µM (active)
CC50 [18]: 5.71 µM (active)
CC50 [19]: 7.06 µM (active)
EC50 (Streptokinase A): > 150 µM (not active)

Cc1nc(N/C(N)=N/C(=O)NC2CCCCC2)nc2ccccc12
CC50 (Vero): 19.2 µM (active)
IC50 (cells): 3.25 µM (active)
CC50 [17]: 17.7 µM (active)
EC50 [20]: 0.0667 µM (active)
CC50 [18]: 16.9 µM (active)
CC50 [19]: 13.3 µM (active)
